Here are results for nine compounds from PubChem BioAssay (NCI).

Test systems include CAKI-1 renal; COLO 205 colon; HCT-15 colon; LOX IMVI melanoma; M14 melanoma; MOLT-4 leukemia; RXF 393 renal; SF-268 CNS; SNB-19 CNS; SR leukemia.
Holding throughout (test): NCI-60 cell line screen, 48 h

SMILES strings stand for the structures.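 Method: 48-hour compound exposure of cells in 96-well plates, five concentrations, linear interpolation of endpoints. At the GI50, growth is halved. TGI denotes the concentration required for complete inhibition of growth.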

On to `COc1cc2ncn(-c3cc(OCc4ccccc4C(F)(F)F)c(C(C)=O)s3)c2cc1OC`, for which the GI50 with CAKI-1 renal, in the test with COLO 205 colon, with HCT-15 colon, in the test on LOX IMVI melanoma, in the test on M14 melanoma and in the test with MOLT-4 leukemia was > 25 µM each time. Besides, the GI50 in the test on RXF 393 renal was > 21.5 µM; in the test on SF-268 CNS it was > 25 µM; with SNB-19 CNS, > 25 µM; with SR leukemia, > 25 µM. Besides, the TGI in the test with CAKI-1 renal, in the test with COLO 205 colon, in the test with HCT-15 colon, with LOX IMVI melanoma, in the test on M14 melanoma and in the test on MOLT-4 leukemia was > 25 µM in each case. Moreover, the TGI with RXF 393 renal, with SF-268 CNS, in the test with SNB-19 CNS and in the test with SR leukemia was > 25 µM throughout.

On to `Cc1nnc(-c2ccc(C)c(-c3ccc(C(=O)NCc4ccc(Cl)cc4)cc3)c2)o1`, for which the GI50 in the test on CAKI-1 renal is 11.8 µM; with COLO 205 colon, 9.08 µM; in the test on HCT-15 colon, 11.7 µM; with LOX IMVI melanoma, > 25 µM; with M14 melanoma it was 15.7 µM; in the test with MOLT-4 leukemia, 9.73 µM. For the same compound, the GI50 is 6.28 µM in the test on RXF 393 renal, 12.9 µM in the test on SF-268 CNS, > 22.6 µM in the test on SNB-19 CNS and 11.9 µM with SR leukemia. Moreover, the TGI in the test on CAKI-1 renal is > 25 µM; in the test on COLO 205 colon it was > 23.7 µM; in the test on HCT-15 colon, > 25 µM; in the test on LOX IMVI melanoma it was > 25 µM; with M14 melanoma it was > 25 µM; in the test on MOLT-4 leukemia, > 25 µM. Besides, the TGI in the test on RXF 393 renal, in the test with SF-268 CNS, in the test with SNB-19 CNS and with SR leukemia was > 25 µM in each case.

`O=C(O)CCSC(=S)Nc1cccc(F)c1`: the TGI in the test with CAKI-1 renal is > 100 µM; in the test on COLO 205 colon it was > 100 µM; in the test with HCT-15 colon, > 100 µM; in the test with LOX IMVI melanoma it was 42.6 µM; in the test on M14 melanoma it was > 100 µM; in the test on MOLT-4 leukemia it was > 100 µM. Further, the TGI in the test on RXF 393 renal is 99.2 µM; in the test on SF-268 CNS it was > 100 µM; in the test on SNB-19 CNS, > 100 µM; in the test on SR leukemia, > 100 µM.

Take `CC(C)(C)NC/C(=C\c1ccccc1)C(=O)c1ccccc1`: the GI50 was 1.88 µM with CAKI-1 renal; 1.34 µM in the test with COLO 205 colon; 1.56 µM with HCT-15 colon; 1.3 µM in the test with LOX IMVI melanoma; 1.8 µM in the test with M14 melanoma; 2.23 µM in the test on MOLT-4 leukemia. For the same compound, the GI50 in the test with SF-268 CNS is 3.8 µM; in the test on SNB-19 CNS, 4.27 µM; with SR leukemia it was 1.67 µM. For the same compound, the TGI in the test on CAKI-1 renal stood at 6.36 µM; with COLO 205 colon, 2.88 µM; in the test on HCT-15 colon, 7.16 µM; in the test with LOX IMVI melanoma it was 2.89 µM; in the test on M14 melanoma, 4.2 µM; in the test on MOLT-4 leukemia, 45.9 µM. Moreover, the TGI with RXF 393 renal was 2.37 µM; in the test with SF-268 CNS it was 21 µM; in the test with SNB-19 CNS, 18.4 µM; in the test with SR leukemia, 8.68 µM.

In the case of `O=C(Nc1cccc(Cl)c1)c1cc(N=Nc2ccc([N+](=O)[O-])cc2Cl)ccc1O`, the GI50 is 1.93 µM in the test with CAKI-1 renal; 3.19 µM in the test with COLO 205 colon; 1.89 µM with HCT-15 colon; 3.02 µM with LOX IMVI melanoma; 3.18 µM in the test with M14 melanoma; 1.74 µM in the test with MOLT-4 leukemia. Besides, the GI50 with RXF 393 renal is 2.56 µM; in the test with SF-268 CNS it was 2.22 µM; in the test on SNB-19 CNS it was 3.07 µM; with SR leukemia, 1.6 µM. Also, the TGI with CAKI-1 renal is 4.02 µM; in the test with COLO 205 colon, 11 µM; with HCT-15 colon it was 5.85 µM; in the test with LOX IMVI melanoma it was 10.8 µM; with M14 melanoma, 12.1 µM; with MOLT-4 leukemia it was 4.4 µM. The TGI in the test on RXF 393 renal is 6.99 µM; in the test with SF-268 CNS it was 11.4 µM; in the test with SNB-19 CNS, > 100 µM; in the test with SR leukemia it was 4.29 µM.

As for `Cc1cc(NNC(=O)c2ccccc2O)nc(Nc2nc3ccccc3o2)n1`, the GI50 in the test on CAKI-1 renal was 1.73 µM; in the test with COLO 205 colon it was 2.75 µM; in the test on HCT-15 colon, 1.17 µM; in the test with LOX IMVI melanoma, 0.607 µM; with M14 melanoma, 0.854 µM; in the test on MOLT-4 leukemia, 1.31 µM. Also, the GI50 was 1.69 µM with RXF 393 renal, 1.13 µM with SF-268 CNS, 1.86 µM in the test with SNB-19 CNS and 0.602 µM in the test on SR leukemia. Further, the TGI with CAKI-1 renal was 14.3 µM; with COLO 205 colon, 15.4 µM; in the test with HCT-15 colon it was > 39.5 µM; with LOX IMVI melanoma it was 4.41 µM; in the test with M14 melanoma it was 3.44 µM; in the test with MOLT-4 leukemia, 7.88 µM. For the same compound, the TGI in the test with RXF 393 renal was determined as 7.3 µM; in the test with SF-268 CNS, 40.8 µM; in the test with SNB-19 CNS it was 21.3 µM; in the test with SR leukemia, 7.31 µM.

For `C=C1C(=O)OC2C1C(OC(=O)/C(C)=C\C)CC1(CO1)C1C(O)C=C(C)C21O` (centres undefined), the TGI in the test with CAKI-1 renal was 6.36 µM; in the test with COLO 205 colon it was 2.62 µM; in the test on HCT-15 colon, 11 µM; in the test on LOX IMVI melanoma it was 30.6 µM; in the test with M14 melanoma, 7.58 µM; in the test with MOLT-4 leukemia, 11.8 µM. The TGI is 7.09 µM in the test with RXF 393 renal, 17.4 µM in the test with SF-268 CNS, 35.2 µM in the test with SNB-19 CNS and 24.2 µM in the test on SR leukemia.

`O=C(O)CCSC(=O)Nc1ccccc1Cl`: the TGI with CAKI-1 renal, in the test on COLO 205 colon, with HCT-15 colon, in the test on LOX IMVI melanoma, in the test on M14 melanoma and with MOLT-4 leukemia was > 100 µM each time. The TGI with RXF 393 renal, with SF-268 CNS, with SNB-19 CNS and with SR leukemia was > 100 µM throughout.

As for `CCOC(=O)NC(=O)c1cn(CCN2CCNCC2)c(=O)[nH]c1=O`, the TGI with CAKI-1 renal, in the test on COLO 205 colon, in the test on HCT-15 colon, in the test on LOX IMVI melanoma, with M14 melanoma and in the test with MOLT-4 leukemia was > 100 µM each time. Moreover, the TGI with RXF 393 renal, in the test on SF-268 CNS, with SNB-19 CNS and in the test with SR leukemia was > 100 µM in each case.
